# Test results published in US9351929B2, “Antibiotic formulations, unit doses, kits, and methods” (Bayer Intellectual Property GMBH, priority 2005, dated 2016).
# Where a name gives a salt, the structure may show the parent alone.
# What was measured:
# [1] = system: CD rats; assay: 14-consecutive day nose-only inhalation toxicity and recovery; type: in vivo, rat
# Protocol: The solution was used to generate aerosolized vancomycin for all vancomycin exposure groups.
# Nose-only exposures were conducted in a “flow-past” cylindrical inhalation chamber placed inside a steel-framed Plexiglas secondary containment box. The chamber contained 48 animal ports, each compatible with a single nose-only exposure tube, aerosol concentration sampling device (e.g., filter), or oxygen monitor.
# The total air flow through the exposure system was balanced to achieve individual animal port flows of ˜500 mL/min (port flow approximated based on total chamber flow). Measured flows included sample flow rate, nebulizer flow rate, dilution flow rate (chamber make-up air), and chamber exhaust flow.
# Vancomycin solution was aerosolized with two Aerotech II nebulizers operated at 20 psi driving pressure. The target aerosol Vancomycin concentration for all exposure levels was ˜1.0 mg/L.
# Aerosolized vancomycin was administered to 3 groups of male and female CD rats (available from Charles River Laboratories, Kingston, N.Y.) for durations of 30 min (Low), 90 min (Mid), and 180 min (High). A control group was exposed for 180 min to aerosols generated from a normal saline solution. Groups of rats from the Control and High level 14-day exposures were also studied following a 14-day recovery period. Endpoints included clinical observations, body weights, clinical pathology (hematology, clinical chemistry), urinalyses, organ weights, and histopathology.
# [2] = Aerosol particle size distribution by laser diffraction; type: physicochemical; conditions: solutions in WFI 60-140 mg/ml, fill 2-4 ml
# Protocol: Droplet size distributions for aerosolized drug and placebo solutions were measured using the Sympatec HELOS laser diffraction spectrometer. In preparation for a run, the nebulizer was connected to the compressed air line, the flow turned on and the pressure regulator set to a driving pressure to generate a flow rate of 8 LPM through the nebulizer. The flow was then turned off by closing the flow shut-off valve. Next, the nebulizer was connected to a “T” piece with one port plugged, and the other port coupled to a mouthpiece. The nebulizer was then filled with drug solution, and mounted so that nebulizer mouthpiece was aligned parallel to the nozzle of the Rodos dry powder disperser apparatus already installed in the spectrometer. The laser diffraction system was setup to automatically trigger when it sensed the presence of the aerosol generated by the nebulizer. Measurements were initiated by opening the shut-off valve to pressurize the nebulizer and generate the aerosol. A total of 6 particle size distribution scans were taken for each nebulizer run, and then averaged to provide representative size distribution results.
# [3] = system: beagle dogs; assay: 14-consecutive day face mask inhalation toxicity and recovery; type: in vivo, dog
# Protocol: Within 2 hours prior to usage, a vancomycin nebulizer solution having a concentration of 120 mg/ml was formed by dissolving vancomycin hydrochloride (available from Alpharma, Copenhagen, Denmark) in sterile water for injection USP (available from B. Braun Medical Inc., Bethlehem, Pa.). The solution was used to generate aerosolized vancomycin for all vancomycin exposure groups.
# The exposure system consisted of a single, cylindrical, plexiglass inhalation chamber (volume of ˜23.7 L, 14.61-cm radius, 35.56-cm height). The chamber was supplied with two Aerotech II nebulizers operated at ˜40 psi. Nebulized test article and nebulizer air supply was diluted with ˜10 L/min HEPA-filtered dilution air. The flow through the system was ˜36 L/min.
# The aerosolized vancomycin was administered via a face mask to 3 groups of male and female beagle dogs for durations of 15 min (Low), 30 min (Mid), and 60 min (High). A control group was exposed for 60 min to aerosols generated from normal saline solution, i.e., 0.9% sodium chloride injection USP (available from B. Braun Medical Inc.).
# Groups of dogs from the Control and High level 14-day exposures were also studied following a 14-day recovery period. Endpoints for all groups of dogs included physical examinations, clinical observations, body weights, ophthalmology, cardiovascular EKG, clinical pathology (hematology, clinical chemistry), urinalyses, organ weights, histopathology, and toxicokinetics.
smiles,measurement,setting,value
"CN[C@H](CC(C)C)C(=O)N[C@H]1C(=O)N[C@@H](CC(N)=O)C(=O)N[C@H]2C(=O)N[C@H]3C(=O)N[C@H](C(=O)N[C@H](C(=O)O)c4cc(O)cc(O)c4-c4cc3ccc4O)[C@H](O)c3ccc(c(Cl)c3)Oc3cc2cc(c3O[C@@H]2O[C@H](CO)[C@@H](O)[C@H](O)[C@H]2O[C@H]2C[C@](C)(N)[C@H](O)[C@H](C)O2)Oc2ccc(cc2Cl)[C@H]1O [Vancomycin HCl, vancomycin hydrochloride]",mass median aerodynamic diameter of exposure aerosol,"[1]; 120 mg/ml solution, Aerotech II nebulizers, 20 psi",2.0-2.6 μm
same,no observed effect level,"[1]; rat, 14-day inhalation",not established
same,serum indicators of kidney function or urinalysis,"[1]; rat, 14-day inhalation",No vancomycin related changes
same,lung weight increase,"[1]; rat, High exposure level (180 min), 14 days",~19 % of control
same,histopathologic findings after recovery,"[1]; rat, High level, 14 days of recovery",substantial diminution of these findings
same,lung weight increase,"[1]; rat, Low exposure level (30 min), 14 days",approximately 8 % of control
same,neutrophils (hematology),"[1]; rat, Mid and High exposure levels",statistically significant increase
same,lung weight increase,"[1]; rat, Mid exposure level (90 min), 14 days",~20 % of control
same,exposure related histopathologic findings,"[1]; rat, end of 14-day exposure",limited to the respiratory tract
same,tolerability,"[1]; rat, inhalation 30, 90, 180 min/day, 14 days",well-tolerated by all groups of rats
same,body weight,"[1]; rat, inhalation 14 days",no vancomycin treatment related effects
same,clinical observations,"[1]; rat, inhalation 14 days",no vancomycin related effects
same,survival,"[1]; rat, inhalation 14 days, all groups",All rats survived to scheduled necropsy
same,volume weighted median size of aerosol,[2],2-3 μm
same,mass median aerodynamic diameter of exposure aerosol,"[3]; 120 mg/ml solution, Aerotech II nebulizers, ~40 psi",1.9-2.6 μm
same,"physical examinations, clinical observations, ophthalmology, ECG, hematology, clinical chemistry, urinalyses, gross necropsy, organ weights","[3]; dog, 14-day inhalation",no vancomycin related effects
same,survival,"[3]; dog, 14 days, all groups",All dogs survived to scheduled necropsy
same,recovery of histopathological effects,"[3]; dog, High level, 14-day recovery",complete after 14 days
same,histopathology,"[3]; dog, end of 14-day exposure",limited to microscopic findings in the lung
same,tolerability,"[3]; dog, face mask 15, 30, 60 min/day, 14 days",well-tolerated by all groups of dogs
